Where “and” joins values, the source holds several entries; their conditions need not be identical. Equal values may be shown once.
Key:
Candida albicans [1] = assay: CLSI broth microdilution MIC (Example 4); format: cell-based
Method: (§1) Antifungal minimum inhibitory concentration (MIC) testing was undertaken as recommended by the CLSI. Briefly, antifungal susceptibility tests were performed for amphotericin B, robenidine (NCL812) and robenidine (NCL) analogs (NCL004, NCL020, NCL023, NCL024, NCL062, NCL094, NCL097, NCL110, NCL113, NCL114, NCL115, NCL135, NCL139, NCL180, NCL181, NCL195, NCL219, NCL220, NCL228, NCL247, NCL250, NCL259, NCL260, NCL263, NCL265, NCL269, NCL274) by standard broth microdilution method (CLSI) in RPMI 1640. Various concentrations (ranging from high to low) of the selected compounds were prepared in RPMI 1640 medium by double dilution in 96-well microtitre plates. Each well contained an inoculum of approximately 2×10^3 cells/mL. The wells without addition of drugs served as negative (no inoculum) and positive (inoculum only) growth controls. Microtitre plates were incubated at 35° C. for 24-48 hours. […] Antifungal MICs were determined for each isolate in duplicate; if the values obtained were different, the MIC test was repeated a third time.

Cryptococcus neoformans [2] = assay: CLSI broth microdilution MIC (Example 4); format: cell-based
Method: as §1

Candida albicans [3] = assay: CLSI broth microdilution MIC (Example 5); format: cell-based; settings: for activity against one or more isolates of Cryptococcus neoformans and Candida albicans: summary in words
Method: as §1, with “robenidine” for “robenidine (NCL)”, “(NCL23, NCL24, NCL97,” for “(NCL004, NCL020, NCL023, NCL024, NCL062, NCL094, NCL097, NCL110,”, “NCL113,” for “NCL113, NCL114,”, “NCL115,” for “NCL115, NCL135, NCL139, NCL180, NCL181,”, “NCL220,” for “NCL220, NCL228, NCL247, NCL250,”, “NCL265)” for “NCL260, NCL263, NCL265, NCL269, NCL274)”

Cryptococcus neoformans [4] = assay: CLSI broth microdilution MIC (Example 5); format: cell-based
Method: as §1, with “robenidine” for “robenidine (NCL)”, “(NCL23, NCL24, NCL97,” for “(NCL004, NCL020, NCL023, NCL024, NCL062, NCL094, NCL097, NCL110,”, “NCL113,” for “NCL113, NCL114,”, “NCL115,” for “NCL115, NCL135, NCL139, NCL180, NCL181,”, “NCL220,” for “NCL220, NCL228, NCL247, NCL250,”, “NCL265)” for “NCL260, NCL263, NCL265, NCL269, NCL274)”

Candida albicans [5] = assay: CLSI broth microdilution MIC (Example 6); format: cell-based
Method: (§2) Antifungal minimum inhibitory concentration (MIC) testing was undertaken as recommended by the CLSI (1). Briefly, antifungal susceptibility tests were performed for amphotericin B, robenidine (NCL812) and 10 robenidine analogs (NCL023, NCL024, NCL097, NCL113, NCL115, NCL195, NCL219, NCL220, NCL259, NCL265) by standard broth microdilution method (CLSI) in RPMI 1640. Various concentrations (ranging from high to low) of the selected compounds were prepared in RPMI 1640 medium by double dilution in 96-well microtitre plates. Each well contained an inoculum of approximately 2×10^3 cells/mL. The wells without addition of drugs served as negative (no inoculum) and positive (inoculum only) growth controls. Microtitre plates were incubated at 35° C. for 24-48 hours. […] Antifungal MICs were determined for each isolate in duplicate; if the values obtained were different, the MIC test was repeated a third time.

Cryptococcus neoformans [6] = assay: CLSI broth microdilution MIC (Example 6); format: cell-based
Method: as §2

C. gattii = assay: CLSI broth microdilution MIC (Example 6); format: cell-based, Cryptococcus gattii
Method: as §2

[7] = system: Candida albicans ATCC14053; assay: Broth micro-dilution screen at 16 μg/mL and MIC (Example 9); format: cell-based; settings: for Screen at 16 μg/mL: single concentration 16 μg/mL, Growth or No growth of C. albicans ATCC14053
Method: The antifungal activity of 201 NCL analogs against Candida albicans ATCC14053 in vitro was investigated. A broth micro-dilution method was used, according to CLSI guidelines as described. NCL analogs were dissolved in DMSO and originally screened at a single concentration of 16 μg/mL.

[8] = clinical isolate C. albicans 12-93301752 Azole Resistant
[9] = clinical isolate C. albicans 14-90045999 Azole Resistant
[10] = clinical isolate C. albicans 15-45171061
[11] = clinical isolate C. albicans 15-91329871
[12] = clinical isolate C. albicans 16-24136919 Azole Resistant
[13] = clinical isolate C. albicans 16-46177400
[14] = clinical isolate C. albicans 16-90050810
[15] = clinical isolate C. albicans 16-90054237
[16] = clinical isolate C. albicans 18-144-00196
[17] = clinical isolate C. albicans 18-148-08188 Azole Resistant
[18] = human clinical isolate C. neoformans serotype A/D hybrid
[19] = human clinical isolate C. neoformans var grubii 16-90050434
[20] = human clinical isolate C. neoformans var grubii 17-90028233
[21] = human clinical isolate C. neoformans var grubii 17-93996464
[22] = human clinical isolate C. neoformans var grubii 17-93996964
[23] = human clinical isolate C. gatti 17-90232099
[24] = human clinical isolate C. gattii 16-90050373
[25] = human clinical isolate C. gattii 17-90028211
[26] = human clinical isolate C. gattii 17-90028217
[27] = human clinical isolate C. gattii 17-90028242

Row | MIC at 24-48 hours (Candida albicans [1]; Candida albicans ATCC 90028) [µg/mL] | MIC at 24-48 hours (Candida albicans [1]; Candida albicans SA3) [µg/mL] | MIC at 24-48 hours (Cryptococcus neoformans [2]; Cryptococcus neoformans SA1) [µg/mL] | MIC at 24-48 hours (Cryptococcus neoformans [2]; Cryptococcus neoformans SA2) [µg/mL] | MIC (Candida albicans [3]; C. albicans SA3) [µg/mL] | MIC (Candida albicans [3]; Candida albicans ATCC 90028) [µg/mL] | MIC (Candida albicans [3]; [8]) [µg/mL] | MIC (Candida albicans [3]; [9]) [µg/mL] | MIC (Candida albicans [3]; [10]) [µg/mL] | MIC (Candida albicans [3]; [11]) [µg/mL] | MIC (Candida albicans [3]; [12]) [µg/mL] | MIC (Candida albicans [3]; [13]) [µg/mL] | MIC (Candida albicans [3]; [14]) [µg/mL] | MIC (Candida albicans [3]; [15]) [µg/mL] | MIC (Candida albicans [3]; [16]) [µg/mL] | MIC (Candida albicans [3]; [17]) [µg/mL] | MIC (Cryptococcus neoformans [4]; Cryptococcus neoformans SA1) [µg/mL] | MIC (Cryptococcus neoformans [4]; Cryptococcus neoformans SA2) [µg/mL] | MIC (Candida albicans [5]; C. albicans SA3) [µg/mL] | Compound | activity against one or more isolates of Cryptococcus neoformans and Candida albicans (Candida albicans [3]) | further results
1 | 32 | 32 | 16 | 16 | 32 | 32 | 16 | >16 | 16 | 16 | 8 | >16 | >16 | 16 | 16 | 16 | 16 | 16 | 32 | Cl.N=C(NN=Cc1cccc(F)c1)NN=Cc1cccc(F)c1 [NCL023] | highly active | antifungal activity against the two isolates of Candida albicans (Candida albicans [1]; summary in words): high antifungal activity; MIC (Candida albicans [5]; Candida albicans ATCC 90028): 32 µg/mL; MIC (Cryptococcus neoformans [6]; Cryptococcus neoformans SA1): 16 µg/mL; MIC (Cryptococcus neoformans [6]; Cryptococcus neoformans SA2): 16 µg/mL; MIC (Cryptococcus neoformans [6]; [18]): 8 µg/mL; MIC (Cryptococcus neoformans [6]; [19]): 8 µg/mL; MIC (Cryptococcus neoformans [6]; [20]): 8 µg/mL; MIC (Cryptococcus neoformans [6]; [21]): 8 µg/mL; MIC (Cryptococcus neoformans [6]; [22]): 8 µg/mL; MIC (C. gattii; [23]): 8 µg/mL; MIC (C. gattii; [24]): 8 µg/mL; MIC (C. gattii; [25]): 16 µg/mL; MIC (C. gattii; [26]): 16 µg/mL; MIC (C. gattii; [27]): 8 µg/mL; MIC ([7]; C. albicans ATCC14053, test range 0.25-64 μg/mL, duplicate): 8 µg/mL and 16 µg/mL; Screen at 16 μg/mL [7]: No growth
2 | >32 | >32 | >32 | 32 | >32 | >32 | 8 | 4 | 16 | >16 | 8 | >16 | >16 | 4 | 16 | >16 | >32 | 32 | >32 | Cl.N#Cc1ccc(C=NNC(=N)NN=Cc2ccc(C#N)cc2)cc1 [NCL024] | highly active | MIC (Candida albicans [5]; Candida albicans ATCC 90028): >32 µg/mL; MIC (Cryptococcus neoformans [6]; Cryptococcus neoformans SA1): >32 µg/mL; MIC (Cryptococcus neoformans [6]; Cryptococcus neoformans SA2): 32 µg/mL; MIC (Cryptococcus neoformans [6]; [18]): 32 µg/mL; MIC (Cryptococcus neoformans [6]; [19]): 32 µg/mL; MIC (Cryptococcus neoformans [6]; [20]): 16 µg/mL; MIC (Cryptococcus neoformans [6]; [21]): 32 µg/mL; MIC (Cryptococcus neoformans [6]; [22]): 32 µg/mL; MIC (C. gattii; [23]): 32 µg/mL; MIC (C. gattii; [24]): 16 µg/mL; MIC (C. gattii; [25]): 8 µg/mL; MIC (C. gattii; [26]): 32 µg/mL; MIC (C. gattii; [27]): 32 µg/mL; Screen at 16 μg/mL [7]: Growth
3 | >32 | >32 | 8 | 8 | >32 | >32 | >16 | 8 | >16 | >16 | >16 | >16 | >16 | >16 | >16 | >16 | 8 | 8 | >32 | COc1ccc(C=NNC(=N)NN=Cc2ccc(OC)c(OC)c2)cc1OC.Cl [NCL115] | highly active | MIC (Candida albicans [5]; Candida albicans ATCC 90028): >32 µg/mL; MIC (Cryptococcus neoformans [6]; Cryptococcus neoformans SA1): 8 µg/mL; MIC (Cryptococcus neoformans [6]; Cryptococcus neoformans SA2): 8 µg/mL; MIC (Cryptococcus neoformans [6]; [18]): >32 µg/mL; MIC (Cryptococcus neoformans [6]; [19]): >32 µg/mL; MIC (Cryptococcus neoformans [6]; [20]): >32 µg/mL; MIC (Cryptococcus neoformans [6]; [21]): >32 µg/mL; MIC (Cryptococcus neoformans [6]; [22]): >32 µg/mL; MIC (C. gattii; [23]): >32 µg/mL; MIC (C. gattii; [24]): >32 µg/mL; MIC (C. gattii; [25]): >32 µg/mL; MIC (C. gattii; [26]): >32 µg/mL; MIC (C. gattii; [27]): >32 µg/mL; Screen at 16 μg/mL [7]: Growth
